Patent US7629375B2, “Cytoprotective compounds, pharmaceutical and cosmetic formulations, and methods” (Johnson & Johnson Consumer Companies, Inc., priority 2001, dated 2009)

Tested on: neonatal cardiomyocytes
Test: Myocyte calcium-contractility assay
Format: cell-based, rat
Details: anaerobic chamber 16 hours in DMEM 1 mM glucose, reoxygenation two hours
Procedure: A. Isolation and Culture of Primary Neonate Myocytes.
The following materials are employed: • 10× Heart Dissection Solution (HDS) contains the following components (g/l) in tissue grade water: NaCl, 68; HEPES, 47.6; NaH2PO4, 2; Glucose, 10; KCl, 4; MgSO4, 1, pH adjusted to 7.4. Prior to filter sterilization of diluted (1×HDS) solution, 10 mg phenol red is added to each 500 milliliters of medium. • Transferrin and Bovine Insulin (available from Life Technologies) are resuspended at a concentration of 4 mg/ml in tissue culture grade water. • DMEM-F12—DMEM/F12, powder, 1:1 containing glutamine and pyridoxine hydrochloride (available from Life Technologies). To one liter equivalent of the powder is added 2.43 g of sodium bicarbonate and 10 ml of 100× Penicillin/Streptomycin in 950 ml of tissue culture grade water with stirring. The pH is adjusted to 7.2 with 1M HCl and volume adjusted to 1 liter. The solution is filter sterilized, followed by the addition of 2.5 ml of 4 mg/ml Transferrin, 250 μl 4 mg/ml Insulin and 30.7 mg of bromodeoxyuridine. • DMEM-F12-5% FBS is also prepared for pre-coating the tissue culture plates and initial suspension of the cardiomyocyte pellet. • Collagenase solution-57.1 mg of collagenase is resuspended in 140 ml 1×HDS.
Tissue culture ware is pre-coated with DMEM-F12-5% FBS by incubating […] per well of a 96-well plate and 0.5 ml per 24-well plate at 37° C.
Two-day old rat pups are removed from their mothers and placed in a sterile container. Pups are dipped quickly into 70% alcohol, then decapitated and the body placed in an empty sterile tissue culture dish. An incision is made starting at the neck and progressing towards the belly, cutting through the sternum. The heart is removed and placed in a tissue culture dishes containing 1×HDS. The atria are trimmed, and the remaining ventricles are placed into a separate tissue culture dish containing 1×HDS, where they are sectioned into 3-4 pieces each. Ventricles are then transferred to a sterile 250 ml glass flask and the 1×HDS is removed. Twenty milliliters of pre-warmed collagenase solution is added to the ventricles, followed by incubation at 37° C. with shaking. After 20 minutes, the collagenase solution is removed and replaced with 20 ml fresh pre-warmed collagenase. Incubation is continued for an additional 20 minutes. At the end of the incubation, any tissue chunks are allowed to settle prior to removing the collagenase (containing the isolated cardiomyocytes) from the disrupted tissue pieces. The isolated myocytes are added to a 50 ml Falcon tube containing 2 ml Fetal Bovine Serum (FBS). The remaining tissue pieces are subjected to a second digestion by adding 20 ml fresh pre-warmed collagenase and incubating as above for 20 minutes. This second digest is then centrifuged at 1000 rpm for 5 minutes (tabletop centrifuge). The resulting supernatant is discarded, and the cell pellet is suspended with 4 ml FBS. The resulting cell suspension is placed in the incubator at 37° C. This step is repeated several additional times to harvest additional material.
Percoll gradients are prepared by adding 2.5 ml of 10×HDS to 22.5 ml of Percoll (Life Technologies) with mixing (Percoll Stock). Top Gradient solution (11 ml Percoll Stock and 14 ml 1×HDS) and Bottom Gradient solution (13 ml Percoll Stock and 7 ml 1×HDS) are prepared. Four milliliters of the Top Gradient solution is transferred into 6×15 ml sterile Falcon tubes. Three milliliters of the Bottom Gradient solution is placed in each tube by inserting a serological pipette to the bottom of the tube and slowly adding the liquid.
All the digests (6) are pooled in one 50 ml Falcon tube and centrifuged on a tabletop centrifuge at 1000 rpm for 10 minutes. The supernatant is discarded, and the cell pellet is resuspended in 12 ml of 1×HDS. Two milliliters of the cell suspension is added to the top of each gradient. […]

SMILES	calcium transients (Fluo-4) in amounts indicative of ability guard against ischemic damage and maintain contractile function
CC(C)(C)c1cc(C=C2C(=O)Oc3ccc(O)cc32)cc(C(C)(C)C)c1O [3-(3,5-di-tert-butyl-4-hydroxy-benzylidene)-5-hydroxy-3H-benzofuran-2-one]	presence of calcium transients
COC(=O)c1ccc(C=Cc2ccc(C)s2)cc1 [4-[2-(5-methyl-thiophen-2-yl)-vinyl]-benzoic acid methyl ester]	presence of calcium transients
O=C(c1ccc(C=Cc2ccc(O)c(O)c2)cc1)N(CCO)CCO [4-[2-(3,4-dihydroxy-phenyl)-vinyl]-N,N-bis-(2-hydroxy-ethyl)-benzamide]	presence of calcium transients
O=C(O)C(=O)C[n+]1ccc(C=Cc2ccc(O)c(O)c2)cc1.[Br-] [1-(2-Carboxy-2-oxo-ethyl)-4-[2-(3,4-dihydroxy-phenyl)-vinyl]-pyridinium; bromide]	presence of calcium transients
COc1cc(C=Cc2ccc(C#N)cc2)cc(CC=C(C)CCC=C(C)C)c1O [4-{2-[3-(3,7-dimethyl-octa-2,6-dienyl)-4-hydroxy-5-methoxy-phenyl]-vinyl}-benzonitrile]	presence of calcium transients
O=[N+]([O-])C=Cc1ccc(O)c(O)c1 [4-(2-nitro-vinyl)-benzene-1,2-diol]	presence of calcium transients
